From patent US20240199702A1, “CELL-PERMEABLE CYCLIC PEPTIDES AND USES THEREOF” (Unnatural Products Inc., priority 2021, published 2024)
Where a SMILES comes first, the peptide text is derived from it. [ ]: non-standard residue; d: D form. Ala(thiazol-5-yl) = N[C@@H](Cc1cncs1)C(=O)O; Phe(4-Cl) = N[C@@H](Cc1ccc(Cl)cc1)C(=O)O; Phe(4-F) = N[C@@H](Cc1ccc(F)cc1)C(=O)O; NMeF = CN[C@@H](Cc1ccccc1)C(=O)O; NMeV = CN[C@H](C(=O)O)C(C)C; hSer = N[C@@H](CCO)C(=O)O; NMeA = CN[C@@H](C)C(=O)O; dNMeA = CN[C@H](C)C(=O)O; NEtG = CCNCC(=O)O

Legend:
[1] = biological target: T1, Human MDM2 (HDM2) 1-116 (Homo sapiens, UniProt Q00987); assay: Fluorescence Polarization Assay 1 (MDM2/p53 peptide); format: binding; settings: FAM-labeled p53 peptide, 60 minutes
T1 construct: Human MDM2 (HDM2) 1-116
T1 sequence (Q00987 1-116): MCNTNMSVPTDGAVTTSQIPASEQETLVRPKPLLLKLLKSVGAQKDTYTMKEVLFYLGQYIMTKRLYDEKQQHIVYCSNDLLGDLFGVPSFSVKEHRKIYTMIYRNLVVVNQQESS
Experimental: Fluorescence Polarization Assay 1
(§1) Human MDM2 (HDM2) 1-116 (20 μL) and FAM-labeled GGTSFAEYWNLLSP-NH2, 10 nM and 5 nM respectively in 10 mM Tris, 50 mM NaCl, 0.01% Tween20, and 1 mM DTT at pH 7.4 were dispensed into an opaque, black, 384 well plate. Compounds dissolved in DMSO were pin transferred (˜100-200 nL) to the 384 well plate containing the MDM2/p53 solution. After incubation for 60 minutes, the fluorescence polarization was read on a Molecular Devices SpectraMax plate reader equipped with a Fluorescein FP cartridge. In addition to probe alone (positive control) and probe/MDM2 (negative control), a titration of linear p53(18-26) was included on every plate as an additional control. IC50 values were fit using either Prism or Collaborative Drug Discovery.

[2] = biological target: T2, Human MDM4 (HDM4) 1-114 (Homo sapiens, UniProt O15151); assay: Fluorescence Polarization Assay 2 (MDM4/p53 peptide); format: binding; settings: FAM-labeled p53 peptide, 60 minutes
T2 construct: Human MDM4 (HDM4) 1-114
T2 sequence (O15151 1-114): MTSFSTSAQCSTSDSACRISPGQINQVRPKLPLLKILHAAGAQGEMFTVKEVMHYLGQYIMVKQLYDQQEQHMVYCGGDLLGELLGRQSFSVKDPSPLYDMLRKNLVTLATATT
Experimental: Fluorescence Polarization Assay 2
as §1, with “MDM4 (HDM4) 1-114” for “MDM2 (HDM2) 1-116”, “GGTSFAEYWNLLSP —NH2, 20” for “GGTSFAEYWNLLSP-NH2, 10”, “(−100-200” for “(˜100-200”, “MDM4/p53” for “MDM2/p53”, “probe/MDM4” for “probe/MDM2”

[3] = tested on: MOLM-13 cells; assay: Cellular Fluorescence Assay 1 (CellTiter-Glo, 72 hours); format: cell-based
Experimental: Cellular Fluorescence Assay 1
(§2) MOLM-13 cells were grown in suspension in T75 flasks in RPMI medium with 10% fetal bovine serum (FBS) at 37° C. with 5% CO2. 40 μL ofMOLM-13 cells were plated into columns 1-22 of white, flat bottom, 384 well plates at a density of 1,000 cells per well in RPMI with 10% FBS. Columns 23 and 24 were filled with 40 μL of media as a positive control. 100 nL of compounds dissolved in DMSO were pin transferred into columns 3-22 of the 384 well plate. Columns 1 and 2 served as negative control wells. Plates were incubated for 72 hours at 37° C. with 5% CO2. After incubation, the cells were given 10 μL of CellTiter-Glo® (Promega®). Luminescence was read on a Molecular Devices SpectraMax i3x plate reader.

[4] = tested on: MV4-11 cells; assay: Cellular Fluorescence Assay 2 (CellTiter-Glo, 72 hours); format: cell-based
Experimental: Cellular Fluorescence Assay 2
as §2, with “MV4-11” for “MOLM-13”, “of MV4-11” for “ofMOLM-13”

[5] = tested on: WaGa cells; assay: Cellular Fluorescence Assay 3 (CellTiter-Glo, 72 hours); format: cell-based
Experimental: Cellular Fluorescence Assay 3
as §2, with “WaGa” for “MOLM-13”, “of WaGa” for “ofMOLM-13”

[6] = tested on: MKL-1 cells; assay: Cellular Fluorescence Assay 4 (CellTiter-Glo, 72 hours); format: cell-based
Experimental: Cellular Fluorescence Assay 4
as §2, with “MKL-1” for “MOLM-13”, “MKL-1” for “ofMOLM-13”, “reader. In some embodiments, the cyclic peptide described herein is a cyclic peptide depicted in Table 1: […]” for “reader.”

CCN1CC(=O)N[C@@H](Cc2ccc(F)cc2)C(=O)N(C)[C@@H](C(C)C)C(=O)N[C@@H](Cc2ccc(Cl)cc2)C(=O)N(C)[C@@H](Cc2ccccc2)C(=O)N2CCC[C@@H]2C(=O)N[C@@H](CCOC)C(=O)N(C)[C@@H](C)C(=O)N[C@@H](Cc2cncs2)C(=O)N(C)[C@H](C)C1=O [compound 25] (cyclo([NEtG][Phe(4-F)][NMeV][Phe(4-Cl)][NMeF][dP][hSer](Me)[NMeA][Ala(thiazol-5-yl)][dNMeA]))
IC50 [1]: < 25 nM
IC50 [2]: ≥ 100 nM
IC50 [3]: ≥ 150 nM
IC50 [4]: 100 to 150 nM
IC50 [5]: ≥ 150 nM
IC50 [6]: 500 to 1000 nM
